Earlier results as cited in patent US5502059A, “Substituted 1-naphthyl-3-pyrazolecarboxamides which are active on neurotensin, their preparation and pharmaceutical compositions containing them” (Sanofi, priority 1993, dated 1996).

Test system: neurotensin receptors

COc1cccc(OC)c1-c1cc(C(=O)NC2(C(=O)O)C3CC4CC(C3)CC2C4)nn1-c1ccnc2cc(Cl)ccc12 (stereo not shown) [SR 48692, 2-1-(7-chloro-4-quinolyl)-5-(2,6-dimethoxyphenyl)-3pyrazolylcarbonylamino!-2-adamantanecarboxylic acid]
neurotensin-antagonist activity: potent and selective neurotensin-antagonist activity
